Reference: patent US12509431B2, “1,4-dihydroquinazolinone compounds and uses thereof” (Edgewise Therapeutics, Inc., priority 2022, dated 2025)

Experiments:
Assay type in all cases: biochemical
Conditions in all cases: Table 7
[1] = system: Rabbit Skeletal myofibrils (rabbit psoas muscle); experiment: Myofibril ATPase assay (PK/LDH NADH-coupled), skeletal myofibrils
Method in brief: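 Rabbit psoas myofibrils in pCa (PIPES/CaCl2/EGTA, pH 7.0) buffer; ADP coupled via PK/LDH to NADH loss, read at 340 nm every 1.5–2 min for 75 min. Slopes normalized to vehicle (100%) and fit to 4-parameter logistic for EC25, plus EC50 for inhibitors.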

[2] = target: T1, Porcine Ventricle myofibrils (left ventricle of Yucatan minipigs) (Sus scrofa, UniProt P79293); experiment: Myofibril ATPase assay (PK/LDH NADH-coupled), ventricle myofibrils
T1 construct: Myofibrils from porcine cardiac muscle was isolated from the left ventricle of Yucatan minipigs; tissue Exemplar Genetics; host or cells: left ventricle of Yucatan minipigs
Method in brief: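 Yucatan minipig left-ventricle myofibrils; ATPase measured by PK/LDH-coupled NADH loss at 340 nm, read every 1.5-2 min for 75 min. Slopes normalized to vehicle (100%) and fit to 4-parameter logistic model; EC25 and, for inhibitors, EC50 calculated.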

Porcine Atria myofibrils = experiment: Myofibril ATPase assay (PK/LDH NADH-coupled), atria myofibrils
Method in brief: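 Porcine atrial myofibril ATPase followed via PK/LDH-coupled NADH depletion, absorbance at 340 nm read every 1.5-2 min over 75 min. Slopes (mAU/min) normalized to vehicle as 100% and fit to a 4-parameter logistic; EC25% derived, plus EC50% for inhibitors.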

T1 sequence (P79293 whole entry): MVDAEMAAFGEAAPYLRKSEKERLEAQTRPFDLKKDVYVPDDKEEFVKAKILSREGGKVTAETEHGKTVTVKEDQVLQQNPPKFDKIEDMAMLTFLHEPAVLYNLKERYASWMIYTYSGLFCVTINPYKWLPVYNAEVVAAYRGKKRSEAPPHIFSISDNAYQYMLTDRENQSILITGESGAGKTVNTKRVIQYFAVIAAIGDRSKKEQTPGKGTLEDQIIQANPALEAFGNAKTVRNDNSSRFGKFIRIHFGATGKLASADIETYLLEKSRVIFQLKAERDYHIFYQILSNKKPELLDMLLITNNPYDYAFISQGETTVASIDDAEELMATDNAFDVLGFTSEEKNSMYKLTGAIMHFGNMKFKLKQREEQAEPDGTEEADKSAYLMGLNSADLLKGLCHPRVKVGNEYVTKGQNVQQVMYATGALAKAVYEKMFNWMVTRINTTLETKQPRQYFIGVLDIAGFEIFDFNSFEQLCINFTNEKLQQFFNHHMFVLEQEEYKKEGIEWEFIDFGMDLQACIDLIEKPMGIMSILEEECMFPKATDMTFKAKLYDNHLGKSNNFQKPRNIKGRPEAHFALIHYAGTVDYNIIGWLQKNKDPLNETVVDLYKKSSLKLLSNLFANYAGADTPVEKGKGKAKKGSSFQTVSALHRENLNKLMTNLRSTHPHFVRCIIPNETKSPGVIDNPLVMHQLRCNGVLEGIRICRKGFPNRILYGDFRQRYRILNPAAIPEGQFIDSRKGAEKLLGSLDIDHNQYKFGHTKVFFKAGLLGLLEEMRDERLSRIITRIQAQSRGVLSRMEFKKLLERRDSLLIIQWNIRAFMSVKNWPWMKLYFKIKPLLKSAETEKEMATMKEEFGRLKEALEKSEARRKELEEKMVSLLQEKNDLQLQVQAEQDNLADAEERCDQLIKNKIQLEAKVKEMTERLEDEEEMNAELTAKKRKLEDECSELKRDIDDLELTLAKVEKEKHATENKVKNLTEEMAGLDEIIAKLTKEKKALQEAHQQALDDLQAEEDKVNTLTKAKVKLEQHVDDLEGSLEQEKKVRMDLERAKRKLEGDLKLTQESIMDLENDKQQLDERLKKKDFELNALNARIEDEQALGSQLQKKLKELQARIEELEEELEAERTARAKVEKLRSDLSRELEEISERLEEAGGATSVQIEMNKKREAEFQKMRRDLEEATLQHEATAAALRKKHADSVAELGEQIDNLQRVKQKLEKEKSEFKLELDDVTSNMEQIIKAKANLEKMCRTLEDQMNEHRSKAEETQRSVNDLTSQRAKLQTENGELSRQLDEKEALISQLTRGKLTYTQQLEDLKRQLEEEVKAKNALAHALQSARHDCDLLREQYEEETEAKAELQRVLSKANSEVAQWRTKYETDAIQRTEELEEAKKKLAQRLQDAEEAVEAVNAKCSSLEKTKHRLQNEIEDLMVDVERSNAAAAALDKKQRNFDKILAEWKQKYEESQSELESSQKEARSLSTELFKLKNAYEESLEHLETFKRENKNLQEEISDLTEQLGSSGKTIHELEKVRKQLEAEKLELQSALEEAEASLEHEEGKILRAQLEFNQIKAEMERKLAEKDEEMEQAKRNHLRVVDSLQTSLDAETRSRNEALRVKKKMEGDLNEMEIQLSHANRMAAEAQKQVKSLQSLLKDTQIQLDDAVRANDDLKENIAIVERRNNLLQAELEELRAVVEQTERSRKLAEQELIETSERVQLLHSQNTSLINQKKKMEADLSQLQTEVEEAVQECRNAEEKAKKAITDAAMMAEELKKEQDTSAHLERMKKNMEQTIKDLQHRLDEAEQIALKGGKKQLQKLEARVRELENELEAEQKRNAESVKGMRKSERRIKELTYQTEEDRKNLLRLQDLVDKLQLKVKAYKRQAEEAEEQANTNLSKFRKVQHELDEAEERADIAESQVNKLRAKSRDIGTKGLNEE

C[C@H](NC(=O)CN1Cc2c(C#N)cncc2NC1=O)c1ccc(F)cc1F [Compound N24, 2-{5-Cyano-2-oxo-1H,4H-pyrido[3,4-d]pyrimidin-3-yl}-N-[(1S)-1-(2,4-difluorophenyl)ethyl]acetamide]
Rabbit Psoas IC25 [1]: 0.2119 µM
Porcine Ventricle IC25 [2]: 37.65 µM
Porcine Atria IC25 (Porcine Atria myofibrils): 2.97 µM

C[C@@H](NC(=O)CN1C(=O)Nc2cccnc2C12CC2)c1ncc(C#N)cc1F [Compound N25]
Rabbit Psoas IC25 [1]: 1.324 µM
Porcine Ventricle IC25 [2]: 100 µM
Porcine Atria IC25 (Porcine Atria myofibrils): 13.11 µM

O=C(CN1C(=O)Nc2cccnc2C12CC2)N[C@H](CO)c1ccc(F)cc1F [Compound N27]
Rabbit Psoas IC25 [1]: 100 µM
Porcine Ventricle IC25 [2]: 100 µM
Porcine Atria IC25 (Porcine Atria myofibrils): 100.00 µM

O=C(CN1C(=O)Nc2cccnc2C12CC2)N[C@@H](CO)c1ccc(F)cc1F [Compound N28]
Rabbit Psoas IC25 [1]: 0.2814 µM
Porcine Ventricle IC25 [2]: 6.602 µM
Porcine Atria IC25 (Porcine Atria myofibrils): 0.41 µM

C[C@@H](NC(=O)CN1C(=O)Nc2cccnc2C12COC2)c1ncc(F)cc1F [Compound N29]
Rabbit Psoas IC25 [1]: 100 µM
Porcine Ventricle IC25 [2]: 100 µM
Porcine Atria IC25 (Porcine Atria myofibrils): 100.00 µM

C[C@H](NC(=O)CN1C(=O)Nc2cccnc2C12COC2)c1ncc(F)cc1F [Compound N30]
Rabbit Psoas IC25 [1]: 5.318 µM
Porcine Ventricle IC25 [2]: 100 µM
Porcine Atria IC25 (Porcine Atria myofibrils): 35.72 µM

N#Cc1ccc([C@@H](CO)NC(=O)CN2Cc3c(ccnc3C#N)NC2=O)c(F)c1 [Compound N31]
Rabbit Psoas IC25 [1]: 0.0533 µM
Porcine Ventricle IC25 [2]: 1.237 µM
Porcine Atria IC25 (Porcine Atria myofibrils): 0.38 µM

N#Cc1ccc([C@H](CO)NC(=O)CN2Cc3c(ccnc3C#N)NC2=O)c(F)c1 [Compound N32]
Rabbit Psoas IC25 [1]: 2.872 µM
Porcine Ventricle IC25 [2]: 100 µM
Porcine Atria IC25 (Porcine Atria myofibrils): 100.00 µM

O=C(CN1C(=O)Nc2cccnc2C12CC2)N[C@H]1COc2cc(F)cc(F)c21 [Compound N34]
Rabbit Psoas IC25 [1]: 1.366 µM
Porcine Ventricle IC25 [2]: 100 µM
Porcine Atria IC25 (Porcine Atria myofibrils): 8.44 µM

C[C@H](NC(=O)CN1C(=O)Nc2cccnc2C12COC2)c1ccc(F)cc1F [Compound N35]
Rabbit Psoas IC25 [1]: 0.9847 µM
Porcine Ventricle IC25 [2]: 100 µM
Porcine Atria IC25 (Porcine Atria myofibrils): 6.39 µM

N#Cc1ccc([C@@H](CO)NC(=O)CN2C(=O)Nc3cccnc3C23CC3)c(F)c1 [Compound N36]
Rabbit Psoas IC25 [1]: 1.604 µM
Porcine Ventricle IC25 [2]: 25.16 µM
Porcine Atria IC25 (Porcine Atria myofibrils): 8.01 µM

N#Cc1ccc([C@H](CO)NC(=O)CN2C(=O)Nc3cccnc3C23CC3)c(F)c1 [Compound N37]
Rabbit Psoas IC25 [1]: 0.0599 µM
Porcine Ventricle IC25 [2]: 4.582 µM
Porcine Atria IC25 (Porcine Atria myofibrils): 0.20 µM

C[C@@H](NC(=O)CN1Cc2c(C#N)cncc2NC1=O)c1ncc(F)cc1F [Compound N38]
Rabbit Psoas IC25 [1]: 5.343 µM
Porcine Ventricle IC25 [2]: 100 µM
Porcine Atria IC25 (Porcine Atria myofibrils): 60.44 µM

C[C@H](NC(=O)CN1Cc2c(C#N)cncc2NC1=O)c1ncc(F)cc1F [Compound N39]
Rabbit Psoas IC25 [1]: 1.979 µM
Porcine Ventricle IC25 [2]: 51.8 µM
Porcine Atria IC25 (Porcine Atria myofibrils): 9.59 µM

N#Cc1nccc2c1CN(CC(=O)N[C@H](CO)c1ccc(F)cc1F)C(=O)N2 [Compound N40]
Rabbit Psoas IC25 [1]: 4.177 µM
Porcine Ventricle IC25 [2]: 100 µM
Porcine Atria IC25 (Porcine Atria myofibrils): 87.45 µM

N#Cc1nccc2c1CN(CC(=O)N[C@@H](CO)c1ccc(F)cc1F)C(=O)N2 [Compound N41]
Rabbit Psoas IC25 [1]: 0.0762 µM
Porcine Ventricle IC25 [2]: 2.357 µM
Porcine Atria IC25 (Porcine Atria myofibrils): 1.12 µM

C[C@H](NC(=O)CN1C(=O)Nc2ccc(O)nc2C12CC2)c1ccc(F)cc1F [Compound N42]
Rabbit Psoas IC25 [1]: 100 µM
Porcine Ventricle IC25 [2]: 100 µM
Porcine Atria IC25 (Porcine Atria myofibrils): 100.00 µM

O=C(CN1C(=O)Nc2cccnc2C12CC2)N[C@H](CO)c1ccc(F)cc1F [Compound N43]
Rabbit Psoas IC25 [1]: 100 µM
Porcine Ventricle IC25 [2]: 100 µM
Porcine Atria IC25 (Porcine Atria myofibrils): 32.69 µM

O=C(CN1C(=O)Nc2cccnc2C12CC2)N[C@@H](CO)c1ccc(F)cc1F [Compound N44]
Rabbit Psoas IC25 [1]: 0.5658 µM
Porcine Ventricle IC25 [2]: 18.96 µM
Porcine Atria IC25 (Porcine Atria myofibrils): 1.18 µM

C[C@H](NC(=O)[C@H](C)N1Cc2nc(C#N)ccc2NC1=O)c1ccc(F)cc1F [Compound N45]
Rabbit Psoas IC25 [1]: 100 µM
Porcine Ventricle IC25 [2]: 100 µM
Porcine Atria IC25 (Porcine Atria myofibrils): 14.99 µM

C[C@H](NC(=O)[C@@H](C)N1Cc2nc(C#N)ccc2NC1=O)c1ccc(F)cc1F [Compound N46]
Rabbit Psoas IC25 [1]: 100 µM
Porcine Ventricle IC25 [2]: 100 µM
Porcine Atria IC25 (Porcine Atria myofibrils): 100.00 µM

C[C@@H](NC(=O)CN1C(=O)Nc2cccnc2C12CC2)c1ncc(F)cc1F [Compound N47]
Rabbit Psoas IC25 [1]: 0.2942 µM
Porcine Ventricle IC25 [2]: 6.077 µM
Porcine Atria IC25 (Porcine Atria myofibrils): 0.67 µM

C[C@H](NC(=O)CN1C(=O)Nc2cccnc2C12CC2)c1ncc(F)cc1F [Compound N48]
Rabbit Psoas IC25 [1]: 100 µM
Porcine Ventricle IC25 [2]: 100 µM
Porcine Atria IC25 (Porcine Atria myofibrils): 100.00 µM

O=C(CN1Cc2c(ccnc2C(F)(F)F)NC1=O)N[C@H](CO)c1ncc(F)cc1F [Compound N49]
Rabbit Psoas IC25 [1]: 100 µM
Porcine Ventricle IC25 [2]: 100 µM
Porcine Atria IC25 (Porcine Atria myofibrils): 100.00 µM

O=C(CN1Cc2c(ccnc2C(F)(F)F)NC1=O)N[C@@H](CO)c1ncc(F)cc1F [Compound N50]
Rabbit Psoas IC25 [1]: 2.278 µM
Porcine Ventricle IC25 [2]: 100 µM
Porcine Atria IC25 (Porcine Atria myofibrils): 9.91 µM

CC(NC(=O)CN1Cc2c(ccnc2C2CC2(F)F)NC1=O)c1ncc(F)cc1F (stereo not drawn) [Compound N51]
Rabbit Psoas IC25 [1]: 100 µM
Porcine Ventricle IC25 [2]: 100 µM
Porcine Atria IC25 (Porcine Atria myofibrils): 100.00 µM

Cc1c(F)cnc2c1CN(CC(=O)N[C@H](C)c1ncc(F)cc1F)C(=O)N2 [Compound N52]
Rabbit Psoas IC25 [1]: 15.28 µM
Porcine Ventricle IC25 [2]: 100 µM
Porcine Atria IC25 (Porcine Atria myofibrils): 98.42 µM

Cc1c(F)cnc2c1CN(CC(=O)N[C@@H](C)c1ncc(F)cc1F)C(=O)N2 [Compound N53]
Rabbit Psoas IC25 [1]: 100 µM
Porcine Ventricle IC25 [2]: 100 µM
Porcine Atria IC25 (Porcine Atria myofibrils): 100.00 µM

C[C@H](NC(=O)CN1Cc2c(Cl)cncc2NC1=O)c1ccc(F)cc1F [Compound N56, 2-{5-Chloro-2-oxo-1H,4H-pyrido[3,4-d]pyrimidin-3-yl}-N-[(1S)-1-(2,4-difluorophenyl)ethyl]acetamide]
Rabbit Psoas IC25 [1]: 86.07 µM
Porcine Ventricle IC25 [2]: 100 µM
Porcine Atria IC25 (Porcine Atria myofibrils): 100.00 µM

Cc1c(F)cnc2c1CN(CC(=O)N[C@@H](C)c1ccc(F)cc1F)C(=O)N2 [Compound N57, N-[(1S)-1-(2,4-Difluorophenyl)ethyl]-2-{6-fluoro-5-methyl-2-oxo-1H,4H-pyrido[2,3-d]pyrimidin-3-yl}acetamide]
Rabbit Psoas IC25 [1]: 6.748 µM
Porcine Ventricle IC25 [2]: 100 µM
Porcine Atria IC25 (Porcine Atria myofibrils): 12.15 µM

C[C@@H](NC(=O)CN1Cc2nc(C#N)ccc2NC1=O)c1ncc(F)cc1F [Compound N58]
Rabbit Psoas IC25 [1]: 100 µM
Porcine Ventricle IC25 [2]: 100 µM
Porcine Atria IC25 (Porcine Atria myofibrils): 100.00 µM

C[C@H](NC(=O)CN1Cc2nc(C#N)ccc2NC1=O)c1ncc(F)cc1F [Compound N59]
Rabbit Psoas IC25 [1]: 100 µM
Porcine Ventricle IC25 [2]: 100 µM
Porcine Atria IC25 (Porcine Atria myofibrils): 6.80 µM

C[C@H](NC(=O)CN1Cc2nc(C#N)ccc2NC1=O)c1ccc(F)cc1F [Compound N60, (S)-2-(6-Cyano-2-oxo-1,4-dihydropyrido[3,2-d]pyrimidin-3(2H)-yl)-N-(1-(2,4-difluorophenyl)ethyl)acetamide]
Rabbit Psoas IC25 [1]: 1.385 µM
Porcine Ventricle IC25 [2]: 81.4 µM
Porcine Atria IC25 (Porcine Atria myofibrils): 1.15 µM

C[C@@H](NC(=O)CN1Cc2c(ccnc2C#N)NC1=O)c1ncc(F)cc1F [Compound N61]
Rabbit Psoas IC25 [1]: 100 µM
Porcine Ventricle IC25 [2]: 100 µM
Porcine Atria IC25 (Porcine Atria myofibrils): 100.00 µM

C[C@H](NC(=O)CN1Cc2c(ccnc2C#N)NC1=O)c1ncc(F)cc1F [Compound N62]
Rabbit Psoas IC25 [1]: 0.1508 µM
Porcine Ventricle IC25 [2]: 5.161 µM
Porcine Atria IC25 (Porcine Atria myofibrils): 0.97 µM

C[C@@H](NC(=O)CN1Cc2c(F)cncc2NC1=O)c1ncc(F)cc1F [Compound N63]
Rabbit Psoas IC25 [1]: 100 µM
Porcine Ventricle IC25 [2]: 100 µM
Porcine Atria IC25 (Porcine Atria myofibrils): 100.00 µM

C[C@H](NC(=O)CN1Cc2c(F)cncc2NC1=O)c1ncc(F)cc1F [Compound N64]
Rabbit Psoas IC25 [1]: 16.71 µM
Porcine Ventricle IC25 [2]: 100 µM
Porcine Atria IC25 (Porcine Atria myofibrils): 25.37 µM

CC(NC(=O)CN1Cc2c(ccnc2C(N)=O)NC1=O)c1ncc(F)cc1F (stereo not drawn) [Compound N65]
Rabbit Psoas IC25 [1]: 100 µM
Porcine Ventricle IC25 [2]: 100 µM
Porcine Atria IC25 (Porcine Atria myofibrils): 100.00 µM

C[C@H](NC(=O)CN1Cc2c(ccnc2OC2COC2)NC1=O)c1ccc(F)cc1F [Compound N66]
Rabbit Psoas IC25 [1]: 0.3112 µM
Porcine Ventricle IC25 [2]: 100 µM
Porcine Atria IC25 (Porcine Atria myofibrils): 29.35 µM

COc1ccc2c(n1)C1(CC1)N(CC(=O)N[C@H](C)c1ncc(F)cc1F)C(=O)N2 [Compound N67]
Rabbit Psoas IC25 [1]: 100 µM
Porcine Ventricle IC25 [2]: 100 µM
Porcine Atria IC25 (Porcine Atria myofibrils): 100.00 µM

COc1ccc2c(n1)C1(CC1)N(CC(=O)N[C@@H](C)c1ncc(F)cc1F)C(=O)N2 [Compound N68]
Rabbit Psoas IC25 [1]: 0.0442 µM
Porcine Ventricle IC25 [2]: 1.833 µM
Porcine Atria IC25 (Porcine Atria myofibrils): 0.13 µM

C[C@@H](NC(=O)CN1Cc2cc(F)cnc2NC1=O)c1ncc(F)cc1F [Compound N69]
Rabbit Psoas IC25 [1]: 100 µM
Porcine Ventricle IC25 [2]: 100 µM
Porcine Atria IC25 (Porcine Atria myofibrils): 100.00 µM
